Data published in ChEMBL document CHEMBL1126253, “Energy aspects of oil/water partition leading to the novel hydrophobic parameters for the analysis of quantitative structure-activity relationships” (J Med Chem, 1992).

Experiments:
[1] = log (1/C') was determined; type: ADME
Culicidae = assay: Concentration required to kill 50% of the mosquito larva in 24 hr.; type: organism-based; details: in vivo
[2] = Partition coefficient (logD2.0); type: physicochemical; details: octanol/water
Rattus norvegicus [3] = species: Rattus norvegicus; assay: Concentration of the drug in the liver of rat; type: ADME, organism-based; details: in vivo
Rattus norvegicus [4] = species: Rattus norvegicus; assay: Concentration of the drug in the kidney of rat; type: ADME, organism-based; details: in vivo

O=C(O)c1ccccc1Cl
Log 1/C [1]: 2.15
Log LD50 (Culicidae): -1.62
logD [2]: 2.02

O=C(O)c1ccc(O)cc1 [PARABEN]
Log 1/C [1]: -1.69
Log LD50: -1.29
logD ([2]; pH 2, read-out: logD): 1.41

CCc1ccc(C(=O)O)cc1
logD ([2]; pH 2, read-out: logD): 2.89

O=C(O)c1ccc(I)cc1
Log 1/C [1]: 0.99
Log LD50: -2.31
logD [2]: 3.05

COc1ccc(C(=O)O)cc1 [p-ANISIC ACID]
Log 1/C [1]: -0.66
Log M (Rattus norvegicus [3]): 1.09
Log M (Rattus norvegicus [4]): 1
Log LD50: -1.6
logD ([2]; pH 2, read-out: logD): 1.95

Cc1ccc(C(=O)O)cc1 [4-METHYLBENZOIC ACID]
logD [2]: 2.26

CCCc1ccc(C(=O)O)cc1
logD ([2]; pH 2, read-out: logD): 3.42

O=C(O)c1ccccc1I
Log 1/C [1]: 1.19
logD ([2]; pH 2, read-out: logD): 2.45

Cc1cccc(C(=O)O)c1
Log M (Rattus norvegicus [3]): 1.71
Log M (Rattus norvegicus [4]): 1.83

CCOc1ccc(C(=O)O)cc1
Log M (Rattus norvegicus [3]): 0.92
Log M (Rattus norvegicus [4]): 0.89

O=C(O)c1ccccc1Br
Log 1/C [1]: 1.9
logD ([2]; pH 2, read-out: logD): 2.14

O=C(O)c1ccc(Cl)c(Cl)c1
Log 1/C [1]: 2.47
Log LD50: -2.28
logD [2]: 3.25

CN(C)c1ccc(C(=O)O)cc1
Log M (Rattus norvegicus [3]): 0.17
Log M (Rattus norvegicus [4]): 0.08
logD ([2]; pH 2, read-out: logD): 1.28

CN(C)c1cccc(C(=O)O)c1
Log M (Rattus norvegicus [3]): 0.2
Log M (Rattus norvegicus [4]): 0.45
logD ([2]; pH 2, read-out: logD): 0.22

O=C(O)c1cccc(O)c1 [3-HYDROXYBENZOIC ACID]
Log 1/C [1]: -0.99
logD [2]: 1.55

O=C(O)c1ccccc1F
Log 1/C [1]: 1.82
logD ([2]; pH 2, read-out: logD): 1.52

O=C(O)c1ccc2ccccc2c1 [BETA-NAPHTOIC ACID]
Log LD50: -1.92
logD ([2]; pH 2, read-out: logD): 2.78

O=C(O)c1ccccc1 [BENZOIC ACID]
Log M (Rattus norvegicus [3]): 1.28
Log M (Rattus norvegicus [4]): 1.44

O=C(O)c1cc(Cl)ccc1Cl
Log 1/C [1]: 1.63
Log LD50: -1.77
logD ([2]; pH 2, read-out: logD): 2.82

N#Cc1cccc(C(=O)O)c1
Log M (Rattus norvegicus [3]): 0.69
Log M (Rattus norvegicus [4]): 0.95
logD ([2]; pH 2, read-out: logD): 1.65

CC(=O)Nc1cccc(C(=O)O)c1
Log M (Rattus norvegicus [3]): -0.29
Log M (Rattus norvegicus [4]): -0.1
logD ([2]; pH 2, read-out: logD): 1.32

O=C(O)c1cc(I)cc(I)c1I [2,3,5-TRIIODOBENZOIC ACID]
logD ([2]; pH 2, read-out: logD): 3.45

NCc1ccc(C(=O)O)cc1 [AMINOMETHYLBENZOIC ACID]
logD ([2]; pH 2, read-out: logD): 1.03

NS(=O)(=O)c1ccc(C(=O)O)cc1 [CARZENIDE]
logD ([2]; pH 2, read-out: logD): 0.55

Nc1ccc(C(=O)O)cc1
Log 1/C [1]: -1.67
Log M (Rattus norvegicus [3]): 0.59
Log M (Rattus norvegicus [4]): 0.79
Log LD50: -1.54
logD ([2]; pH 2, read-out: logD): 0.76

CCCCc1ccc(C(=O)O)cc1
logD ([2]; pH 2, read-out: logD): 3.63

O=C(O)c1cccc(Cl)c1
Log 1/C [1]: 2.16
Log M (Rattus norvegicus [3]): 1.57
Log M (Rattus norvegicus [4]): 1.79
Log LD50: -2
logD [2]: 2.72

Cc1ccccc1C(=O)O [TOLUIC ACID]
logD ([2]; pH 2, read-out: logD): 2.27

O=C(O)c1ccc(F)cc1
Log 1/C [1]: 1.27
Log LD50: -1.85
logD ([2]; pH 2, read-out: logD): 2.05

CC(C)c1ccc(C(=O)O)cc1
logD ([2]; pH 2, read-out: logD): 3.28

O=C(O)c1cccc(Br)c1
Log 1/C [1]: 1.71
logD [2]: 2.86

COc1cccc(C(=O)O)c1
Log 1/C [1]: 0.29
Log M (Rattus norvegicus [3]): 1.34
Log M (Rattus norvegicus [4]): 1.35
logD ([2]; pH 2, read-out: logD): 1.98

O=C(O)c1cccc(I)c1
Log 1/C [1]: 1.29
logD [2]: 3.13

O=C(O)c1cccc2ccccc12 [NAPHTHOIC ACID]
Log LD50: -1.46
logD ([2]; pH 2, read-out: logD): 2.98

O=Cc1ccc(C(=O)O)cc1
logD ([2]; pH 2, read-out: logD): 1.76

O=C(O)c1cccc(C(F)(F)F)c1
logD ([2]; pH 2, read-out: logD): 2.99

O=C(O)c1cccc([N+](=O)[O-])c1
Log 1/C [1]: 0.22
Log M (Rattus norvegicus [3]): 0.73
Log M (Rattus norvegicus [4]): 1.23
logD [2]: 1.69

O=C(O)c1ccc(Br)cc1
Log 1/C [1]: 1.19
Log LD50: -2.03
logD [2]: 2.81

[N-]=[N+]=Nc1ccc(C(=O)O)cc1
logD ([2]; pH 2, read-out: logD): 2.54

Nc1ccccc1C(=O)O [ANTHRANILIC ACID]
logD ([2]; pH 2, read-out: logD): 0.51

O=C(O)c1ccccc1[N+](=O)[O-]
Log 1/C [1]: 1.54
logD ([2]; pH 2, read-out: logD): 1.2

Nc1cccc(C(=O)O)c1 [3-AMINOBENZOIC ACID]
Log 1/C [1]: -1
Log M (Rattus norvegicus [3]): 0.76
Log M (Rattus norvegicus [4]): 1.45
logD ([2]; pH 2, read-out: logD): -0.79

O=C(O)c1ccc([N+](=O)[O-])cc1 [4-NITROBENZOIC ACID]
Log M (Rattus norvegicus [3]): 0.79
Log M (Rattus norvegicus [4]): 1.02
Log LD50: -1.52
logD [2]: 1.84

CCCOc1ccc(C(=O)O)cc1
logD ([2]; pH 2, read-out: logD): 3.09

O=C(O)c1ccc(C(F)(F)F)cc1
logD ([2]; pH 2, read-out: logD): 3.18

O=C(O)c1c(Cl)cccc1Cl
Log LD50: -1.22
logD ([2]; pH 2, read-out: logD): 1.8

CC(=O)Nc1ccc(C(=O)O)cc1 [ACEDOBEN]
Log M (Rattus norvegicus [3]): -0.08
Log M (Rattus norvegicus [4]): -0.64
logD ([2]; pH 2, read-out: logD): 1.27

N#Cc1ccc(C(=O)O)cc1
Log M (Rattus norvegicus [3]): 0.62
Log M (Rattus norvegicus [4]): 1.57
logD ([2]; pH 2, read-out: logD): 1.63
